ChEMBL document CHEMBL1201862, “PubChem BioAssay data set” (2004)
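96-well plates; 48 h exposure; 5 concentrations. Endpoints by linear interpolation between flanking doses. Not reached: highest tested concentration assigned. GI50 marks 50% less growth.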 Activity calls are given as the source filed them. No stated cut-off is given here; in the data, active = GI50 up to about 1.1 µM and inactive = higher.

Tests used:
Experiment in all cases: DTP human tumour cell line panel, 48 h
[1] = test system: A549
[2] = test system: CCRF-CEM
[3] = test system: COLO 205
[4] = test system: HCT-15
[5] = test system: HL-60
[6] = test system: HOP-62
[7] = test system: Hs-578T
[8] = test system: MDA-N
[9] = test system: Malme-3M
[10] = test system: NCI-H226
[11] = test system: NCI-H23
[12] = test system: OVCAR-3
[13] = test system: SF-268
[14] = test system: SF-539
[15] = test system: SK-MEL-2
[16] = test system: SN12C
[17] = test system: T47D
[18] = test system: TK-10
[19] = test system: UACC-62
[20] = test system: UO-31

Row | Structure (SMILES) | GI50 [1] | GI50 [2] | GI50 [3] | GI50 [4] | GI50 [5] | GI50 [6] | GI50 [7] | GI50 [8] | GI50 [9] | GI50 [10] | GI50 [11] | GI50 [12] | GI50 [13] | GI50 [14] | GI50 [15] | GI50 [16] | GI50 [17] | GI50 [18] | GI50 [19] | GI50 [20]
1 | Cc1c(C)n(-c2ccccc2)c2nc(S(C)(=O)=O)nc(S(C)(=O)=O)c12 | 16 µM (inactive) | 0.634 µM (active) | 1.8 µM (inactive) | 1.61 µM | 1.58 µM (inactive) | 16.8 µM (inactive) | 16.1 µM (inactive) | 1.64 µM (inactive) | 1.4 µM (inactive) | 21.4 µM (inactive) | 7.82 µM (inactive) | 1.6 µM (inactive) | 14 µM (inactive) | 14 µM (inactive) | 2.07 µM (inactive) | 17.8 µM (inactive) | 2.05 µM (inactive) | 1.58 µM (inactive) | 3.28 µM (inactive) | 1.71 µM (inactive)
2 | O=C1CC(Br)c2c(Br)sc(Br)c21 (stereo not given) | 29.1 µM (inactive) | 2.51 µM (inactive) | 19.8 µM (inactive) | 16.9 µM | 14.2 µM (inactive) | 20.9 µM (inactive) | 36.7 µM (inactive) | 15.5 µM (inactive) | 19.7 µM (inactive) | 29.8 µM (inactive) | 16.7 µM (inactive) | 18.9 µM (inactive) | 23.9 µM (inactive) | 24.5 µM (inactive) | 18.5 µM (inactive) | 15.6 µM (inactive) | 17.6 µM (inactive) | 18.5 µM (inactive) | 17.1 µM (inactive) | 16.4 µM (inactive)
3 | O=c1[nH]c(=O)n(C2OC(CO)C(O)C2O)c2c1CCCC2 (stereo not given) | > 100 µM (inactive) | > 100 µM (inactive) | > 100 µM (inactive) | > 100 µM | > 100 µM (inactive) | > 100 µM (inactive) | > 100 µM (inactive) | > 100 µM (inactive) | > 100 µM (inactive) | > 100 µM (inactive) | > 100 µM (inactive) | > 100 µM (inactive) | > 100 µM (inactive) | > 100 µM (inactive) | > 100 µM (inactive) | > 100 µM (inactive) | > 100 µM (inactive) | > 100 µM (inactive) | > 100 µM (inactive) | > 100 µM (inactive)
4 | O=C(O)C1(Cc2ccc3c(c2)CCC3)Cc2ccccc2C1 | 43 µM (inactive) | 62.8 µM (inactive) | 30.2 µM (inactive) | 54.2 µM | 35.2 µM (inactive) | 84.5 µM (inactive) | 73.1 µM (inactive) | > 100 µM (inactive) | 71.3 µM (inactive) | 91 µM (inactive) | 67.6 µM (inactive) | 71.3 µM (inactive) | 52.7 µM (inactive) | > 100 µM (inactive) | > 100 µM (inactive) | > 100 µM (inactive) | 49.2 µM (inactive) | > 100 µM (inactive) | 76.6 µM (inactive) | 46.1 µM (inactive)
5 | O=C(CCCN1CCC2(CC1)CC(c1ccccc1)OC2=O)c1ccc(F)cc1 (stereo not given) | > 100 µM (inactive) | 41.6 µM (inactive) | 17.3 µM (inactive) | 37.2 µM | 25.6 µM (inactive) | 29.6 µM (inactive) | 40.8 µM (inactive) | 49.4 µM (inactive) | 17.8 µM (inactive) | 53.7 µM (inactive) | 53.7 µM (inactive) | 33.3 µM (inactive) | 53.7 µM (inactive) | 28.4 µM (inactive) | 35.1 µM (inactive) | 48.6 µM (inactive) | 16.2 µM (inactive) | 59 µM (inactive) | 25.2 µM (inactive) | 19.4 µM (inactive)
6 | O=C1Sc2ccccc2NC1=C(C(=O)c1ccccc1)C(=O)c1ccccc1 | 27.5 µM (inactive) | 1.18 µM (inactive) | 37.4 µM (inactive) | 19.5 µM | 1.87 µM (inactive) | 8.75 µM (inactive) | 62.5 µM (inactive) | 33.7 µM (inactive) | 41.2 µM (inactive) | 19.4 µM (inactive) | 22.6 µM (inactive) | 5.18 µM (inactive) | 14.9 µM (inactive) | 26.5 µM (inactive) | 19.4 µM (inactive) | 18.2 µM (inactive) | 26.5 µM (inactive) | 26.1 µM (inactive) | 27 µM (inactive) | 29.9 µM (inactive)
7 | Cc1nc2ccc(NCCN(C)C)c3c(=O)c4cc(O)ccc4n1c23 | 0.0933 µM (active) | 0.0962 µM (active) | 0.445 µM (active) | 0.394 µM | 0.662 µM (active) | 0.433 µM (active) | 0.508 µM (active) | 1.43 µM (inactive) | 1.19 µM (inactive) | 0.109 µM (active) | 0.318 µM (active) | 1.27 µM (inactive) | 0.75 µM (active) | 0.733 µM (active) | 3.35 µM (inactive) | 0.299 µM (active) | 1.21 µM (inactive) | 2.75 µM (inactive) | 1.25 µM (inactive) | 2.49 µM (inactive)
8 | C/C1=C\CC/C(C)=C/C=C(/C(C)C)CC/C(C(=O)O)=C/CC1 [CROTOCEMBRANEIC ACID] | 34.3 µM (inactive) | 30.5 µM (inactive) | 19.9 µM (inactive) | 37.8 µM | 33 µM (inactive) | 29.6 µM (inactive) | 72.1 µM (inactive) | 59 µM (inactive) | 70.1 µM (inactive) | 33 µM (inactive) | 36.5 µM (inactive) | 22.9 µM (inactive) | 72.8 µM (inactive) | 37.9 µM (inactive) | 25.7 µM (inactive) | 45.3 µM (inactive) | 23.2 µM (inactive) | 56.8 µM (inactive) | 25.8 µM (inactive) | 72.8 µM (inactive)
